Measured values: patent publication US9169203B2, “Sulfoxide-based surfactants” (Novus International Inc., priority 2012, dated 2015)

Assays:
Solubility in water = type: physicochemical; settings: in water at 25° C. and atmospheric pressure
Method: (§1) To determine whether the sulfoxide-based compounds synthesized in Examples 1-9 had surfactant properties, the critical micelle concentration (CMC), surface tension, and solubility were determined. The Wilhelmy plate method was used to determine the equilibrium surface or interfacial tension at an air-liquid interface. A Cahn DCA 322 high-sensitivity balance was used to perform the measurement. Glass slides manufactured by Corning with a width of 22 mm and thickness of 0.1 mm were used as probes; the motor speed was set to be 160 μm/sec. […] The measured force was converted to surface tension using the Wilhelmy equation. The CMC was calculated according to standard procedures.
(§2) The following compounds were tested: (1) hexyl 2-hydroxy-4-[…] (R6SO); (2) octyl 2-hydroxy-4-(methylsulfinyl)butanoate (R8SO); (3) a mixture of 70 wt % R8SO and 30 wt % decyl 2-hydroxy-4-(methylsulfinyl)butanoate (R10SO); (4) a mixture of 70 wt % R8SO and 30 wt % dodecyl 2-hydroxy-4-(methylsulfinyl)butanoate (R12SO); (5) 2-hydroxy-4-(methylsulfinyl)-N-octylbutanamide (R8NHSO); (6) a mixture of 60 wt % R8NHSO and 40 wt % 2-hydroxy-4-(methylsulfinyl)-N-decylbutanamide (R10NHSO); (7) a mixture of 75 wt % R8NHSO and 25 wt % 2-hydroxy-4-(methylsulfinyl)-N-dodecylbutanamide (R12NHSO); as well as the commercially available nonionic surfactants (8) Igepal® CO-630, a branched nonylphenol ethoxylate, and two alkyl ethylene oxides, (9) hexaethylene glycol monododecyl ether (C12E6) and (10) hexaethylene glycol monodecyl ether (C10E6).

[1] = tested on: fresh water fish (i.e., fathead minnows); assay: Fresh water fish acute toxicity test (OECD 203); type: in vivo; settings: at 96 hr
Method: (§3) The potential hazards of the sulfoxide-based compounds were examined by evaluating the toxicity of R8SO in three standard bioassays (i.e., fresh water algae growth inhibition test, Daphnia acute immobilization test, and fresh water fish acute toxicity test).
The fresh water fish acute toxicity test was conduced according to OECD 203 guidelines. For this test, fresh water fish (i.e., fathead minnows) were exposed to a series of concentrations of the test substances for a period of 96 hours. At least seven fishes were used at each test concentration and in the controls. Mortalities were recorded at 24, 48, 72, and 96 hours. Fish were considered dead if there was no visible movement (e.g. gill movements) and if touching of the caudal peduncle produced no reaction. The mortality counts were used to determine LC50, the concentration that killed 50% of the fish.

Daphnia = Daphnia acute immobilization test (OECD 202); type: in vivo; settings: at 48 hr
Method: as §3
The Daphnia acute immobilization test was performed according to the OECD 202 guidelines. Briefly, young daphnids, ages less than 24 hours at the start of the test, were exposed to the test substances at a range of concentrations for a period of 48 hours. Generally, at least 20 animals, preferably divided into four groups of five animals each, were tested for each test concentration and for the controls (i.e., no test substance). The Daphnia were not fed during the test. At least 2 mL of test solution were provided for each animal. Temperatures were held between 18 and 22° C., and for each single test the temperature was within ±1° C. Immobilization was recorded at 24 hours and 48 hours, and compared to control values. Those animals that could not swim within 15 seconds after gentle agitation of the test container were considered to be immobile.

fresh water algae = assay: Fresh water algae growth inhibition test (OECD 201); type: cell-based; settings: at 72 hr
Method: as §3
The fresh water algae growth inhibition test was conducted according to OECD 201 guidelines. Briefly, exponentially growing fresh water algae were exposed to several concentrations of the test substances in batch cultures over a period of 72 hours. The cultures were allowed unrestricted exponential growth under nutrient sufficient conditions and continuous fluorescent illumination. Three replicates at each test concentration were used. Growth was monitored over time and compared to the average growth of control cultures (with no test substances). Growth and growth inhibition are quantified from measurements of the algal biomass as a function of time.

[2] = Critical micelle concentration (CMC), Wilhelmy plate method; type: physicochemical; settings: in water at 25° C. and atmospheric pressure
Method: as §1, §2

[3] = Surface tension at air-liquid interface at CMC, Wilhelmy plate method; type: physicochemical; settings: 25° C. and atmospheric pressure
Method: as §1, §2

Row | SMILES | Solubility (Solubility in water) | CMC [2] [mM] | Surface Tension at CMC [3] [mN/m] | LC50 (concentration that killed 50% of the fish) [1] [ppm] | EC50 (concentration at which 50% of the animals were immobilized) (Daphnia) [ppm] | EC50 (50 percent reduction in growth relative to the control) (fresh water algae) [ppm]
1 | CCCCCCCCOC(=O)C(O)CC[S+](C)[O-] (stereo not shown) [Example R8SO, octyl 2-hydroxy-4-(methylsulfinyl)butanoate] | >50% (wt/wt total) | 11.7 | 29 | 148 | 79 | 175
2 | CCCCCCCCCCCCOCCOCCOCCOCCOCCOCCO [Example C12E6, hexaethylene glycol monododecyl ether, reference compound] | – | 0.087 | 41 | – | – | –
3 | CCCCCCCCCCOCCOCCOCCOCCOCCOCCO [Example C10E6, hexaethylene glycol monodecyl ether, reference compound] | – | 0.90 | 42 | – | – | –

Further lines, with some results ahead:

Row | Solubility (Solubility in water) | CMC [2] [mM] | Surface Tension at CMC [3] [mN/m] | SMILES | LC50 (concentration that killed 50% of the fish) [1] [ppm] | EC50 (concentration at which 50% of the animals were immobilized) (Daphnia) [ppm] | EC50 (50 percent reduction in growth relative to the control) (fresh water algae) [ppm]
4 | >50% (wt/wt total) | 120.9 | 33 | CCCCCCOC(=O)C(O)CC[S+](C)[O-] (stereo not shown) [Example R6SO, hexyl 2-hydroxy-4-(methylsulfinyl)butanoate] | – | – | –
5 | >50% (wt/wt total) | 10.3 | 29 | CCCCCCCCNC(=O)C(O)CC[S+](C)[O-] (stereo not shown) [Example R8NHSO, 2-hydroxy-4-(methylsulfinyl)-N-octylbutanamide] | – | – | –
